Data from patent US12343319B2, “Compositions and methods for treatment of diseases and disorders” (Atai Therapeutics Inc., priority 2023, dated 2025).
Entries after “also recorded” stand apart in the source; their conditions may differ.

What was measured:
[1] = system: C57BL/6J male mice; assay: Mouse forced swim test 24 hr after single administration; type: in vivo; details: 3, 10 & 30 mg/kg i.p., 24 hr post-administration
Method: Young adult C57BL/6J male mice (8-9 weeks old at arrival; n=113) were purchased from Charles River (DE). All C57BL/6J mice were housed in groups of 4 per cage. Mice were maintained under controlled conditions (21±2° C., 50±1% humidity, 12/12 h light/dark cycles, lights on at 7 a.m.) with food and water available ad libitum.
Experimental Design: The experimental procedures were in accordance with the European Communities Council Directive (Directive 2010/63 EU into the Polish Directives (Journal of Laws of 2021, item 1331, as amended)) and approved by the Local Ethic Committee in Olsztyn (Approval No. 27/203 from 22 Mar. 2023). […]
Forced Swim Test: After 17 days of acclimatization (11-12 weeks old), all mice were randomly assigned to experimental groups (n=14-15/group). Sample size (n=14 per group) was determined based on G-power calculations using alpha 0.05, t-test and effect size calculation based on mean and SD from vehicle and positive control groups. […] Because little immobility is observed during the first 2 minutes of the FST, only immobility occurring during the last 4 minutes was scored and analyzed. […] All test sessions were recorded using a video camera placed on the side of the cylinder for subsequent behavioral analysis by scorers blinded to the treatment conditions. […]
Data Analysis: Data for each compound have been analyzed separately using the GraphPad Prism 9 statistical software. […]

[2] = system: male Sprague Dawley rats; assay: Psilocybin operant drug discrimination in rats; type: in vivo, rat
Method: Thirty-six (36) male Sprague Dawley rats served as subjects. Rats had been trained to lever press for food in standard operant conditioning chambers controlled by Med-PC software (Med. Associates Inc., St. Albans, VT) followed by training to associate the right lever to a psilocybin stimulus (0.5 mg/kg, SC), and the left lever to a neutral stimulus (saline, SC). The sequence of psilocybin and saline injections were administered under a randomized design where neither condition was administered for more than 3 consecutive days. […] The rats continued to receive a daily food ration (˜18 g at day end) with ad libitum access to water in their home cages.
Test sessions continued until 50 pellets had been obtained or 30 min had elapsed. During these sessions, response rate was also measured. Three types of tests were conducted: • 1. Dose-response profile for compound 2-2 to generalize to the psilocybin cue. On test days, rats received a single compound 2-2 dose (1, 3, or 10 mg/kg, IP) 10 min prior to test. The distribution of vehicle vs. drug-paired lever presses was recorded as well as the rate of lever response. • 2. Effect of the 5-HT subtype selective antagonists, M100907 (5-HT2A receptor selective; Kehne et al, 1996) and SB242084 (5-HT2C receptor selective, Kennett et al, 1997) against the generalization of compound 2-2. On test days, the rats received a single dose (0.5 mg/kg IP) of either antagonist 30 min before compound 2-2 (10 mg/kg, IP), which was administered 10 min prior to testing. The distribution of vehicle vs. drug-paired lever presses was recorded as well as the rate of lever response. • 3. Time-course profile for compound 2-2 (10 mg/kg IP) to generalize to the psilocybin cue. On test days, the rats received a single compound 2-2 dose (10 mg/kg, IP) at various pretreatment times (i.e., 10 min, 30 min, 1 h, 2 h, 4 h, 8 h) prior to test. The distribution of vehicle vs. drug-paired lever presses was recorded as well as the rate of lever response.
Drug testing was conducted on a Tuesday and Friday with the animals run on either vehicle or training drug (psilocybin 0.5 mg/kg, SC) on intervening weekdays. Group sizes varied among doses and pretreatment times and tended to be higher under situations where the choice response was more variable. This adjustment was made in an attempt to get as reliable a measure of drug vs. vehicle discrimination as possible at that specific dose or pretreatment time.

Row | SMILES | immobility time in mouse FST [1] | generalization to the psilocybin cue ([2]; 10 mg/kg IP after M100907 0.5 mg/kg IP (30 min before)) | generalization to the psilocybin cue ([2]; 10 mg/kg IP after SB242084 0.5 mg/kg IP (30 min before)) | response rate ([2]; 10 mg/kg IP following antagonist pretreatment) | generalization to the psilocybin cue ([2]; 10 mg/kg IP, 10 min prior to test (Veh pretreatment)) | generalization to the psilocybin cue ([2]; 10 mg/kg IP, pretreatment time 4 h) | generalization to the psilocybin cue ([2]; 10 mg/kg IP, pretreatment times of 10 and 30 min) | response rate ([2]; 10 mg/kg IP, across pretreatment times 10 min-8 h) | rate of responding ([2]; 10 mg/kg IP, only at 10 min post dose) | response rate ([2]; dose range 1-10 mg/kg IP)
1 | COc1ccc(OC)c(CCNCc2cc(C)cc(Cl)c2)c1 [Compound 2-1, N-(3-chloro-5-methylbenzyl)-2-(2,5-dimethoxyphenyl)ethan-1-amine] | lack of robust differences; also recorded: Neither compound 2-1 (3, 10 & 30 mg/kg) nor compound 2-2 (3 & 30 mg/kg) showed significant reductions |  |  |  |  |  |  |  |  | 
2 | COc1ccc(OC)c(CCNCc2cc(C)cc(F)c2)c1 [Compound 2-2, 2-(2,5-dimethoxyphenyl)-N-(3-fluoro-5-methylbenzyl)ethan-1-amine] |  | 2+1% | 71+14% | no significant effect | 91+8% | ~35% | ~80% | minor effect | modestly suppressed | minor effects
